The source of these data is patent publication US5260330A, “Substituted anilides” (BASF Aktiengesellschaft, priority 1990, dated 1993).

The test relates to guinea pig hearts. Put plainly: ECG measurement of QT interval prolongation in isolated guinea pig hearts (Langendorff perfusion). Conditions: for EC20: Cavia porcellus, 0.25 h, isolated guinea pig heart, Langendorff perfusion, 37° C, cumulative administration at 15 min intervals into the perfusate, ED20% by linear regression of log dose, read-out: ED20% (dose at which there is a 20% increase in the QT interval from the initial figure); for Relative effect ED20% (D-sotalol)/ED20% (Ex.): ratio relative to D-sotalol, QT interval, guinea pig heart. More on the design: species or system guinea pig (male Duncin-Hartley). From the text: In these the cardiac cycle is divided into systole (contraction of the heart), also called QT interval, and diastole (relaxation of the heart with filling of the ventricles). Repolarization inhibitors increase the QT interval with a negligible effect on the atrioventricular conduction time (PQ interval) and the period of isometric contraction (QRS time, from the start of systole until the semilunar valves open) (see Pschyrembel, 254th edition, 1982).
The activity of the compounds according to the invention as repolarization inhibitors can be investigated in animal experiments by ECG measurements on, for example, guinea pig hearts (see Basic Res. Cardiol. 82 (1987) 437; J. Pharmacol. Methods 21 (1989) 195). Used to compare the activities of a number of substances is, for example, the dose of an agent at which there is a 20% increase in the QT interval from the initial figure (ED20%).This is done by plotting the logarithm of the doses of the particular substances against the experimentally found relative changes in the QT interval, and using linear regression to determine the equation of a straight line from which the ED20% can be calculated.
This method was used to determine the ED20% values for the compounds of Examples 2 and 3 (see Table). D-sotalol was used as comparative substance.
The experimental animals were male Duncin-Hartley guinea pigs with a body weight of 300 to 350 g. 30 min after administration of 1250 I.U. of heparin/kg of body weight into the abdominal cavity, the animals were sacrificed by a blow to the back of the neck. After the common carotid arteries had been cut for exsanguination, the thoracic cavity was opened, and the heart was dissected out and attached to a perfusion apparatus. The Langendorff perfusion was carried out with Krebs-Henseleit solution (NaCl 6896 mg/l; KCl 350 mg/l; MgSO4 285 mg/l; CaCl2 370 mg/l; KH2 PO4 161 mg/l; NaHCO3 2090 mg/l; glucose 2000 mg/l) enriched with oxygen and heated to 37° C. The perfusion volume per unit time was adjusted to 4 to 6 ml/min for a total volume of 100 ml, and the perfusion pressure was adjusted to 60 to 70 mm Hg. Circulating perfusion was carried out after equilibration for 30 min.
The ECG measurements were made via two silver electrodes attached to the surface of the heart in the upper region of the left coronary artery and on the rear of the heart at the level of the valve plane. The PQ and QT intervals, the QRS time and the heart rate were measured.
The substance was administered cumulatively at intervals of 15 min into the perfusate.

Structures can show the parent of a compound that is named as a salt.

For the compound `Cc1ccccc1CCC(=O)Nc1cc(C)c(OCCN2CCCC2)c(C)c1` [Example 3, [3',5'-Dimethyl-4'-(2-(N-pyrrolidinyl)ethoxy)]-3-(2-methylphenyl)propionanilide fumarate], the EC20 is 0.31 µM and the “Relative effect ED20% (D-sotalol)/ED20% (Ex.)” value was 51.
Turning to `Cc1ccccc1C=CC(=O)Nc1cc(C)c(OCCN2CCCC2)c(C)c1` [Example 2, [3',5'-Dimethyl-4'-(2-(N-pyrrolidinyl)ethoxy)]-(2-methylphenyl)acrylanilidefumarate], the EC20 stood at 0.5 µM and the “Relative effect ED20% (D-sotalol)/ED20% (Ex.)” value came out at 32.
Turning to `CC(C)NCC(O)c1ccc(NS(C)(=O)=O)cc1` [D-sotalol, 4'-[1-hydroxy-2-(isopropylamino)ethyl]methanesulfonanilide, reference compound], the EC20 turned out to be 16 µM.
